# Assay results taken from patent US6083496A, “Polyamine transport inhibitors” (priority 1996, dated 2000).
# Legend:
# [1] = system: polyamine transporter; assay: Putrescine uptake ([3H]putrescine) in ZR-75-1 cells; assay type: cell-based, human; conditions: DESC up to 100 μM, MESC up to 200 μM
# Method: (§1) J. Biol. […] Endocrinology 126: 3223-3231). […] Cell cultures were then washed twice with 1 ml PBS containing 5.7 mM sym-norspermidine. Cells were then lysed with 200-μl aliquot of 1 N NaOH and incubated for 30 minutes at 60° C. After neutralization with 200 μl of 1 N HCl, radioactivity was determined from a 250-μl of the cell lysate by scintillation counting. Uptake activity was expressed per amount of total cellular protein as determined by the method of Bradford (Bradford, M. M. 1976. Anal. Biochem. 72: 248-254). Non-specific binding of radioactive substrate was similarly determined in parallel for both cell lines after a 15 second-incubation with 400 μl of ice-cold uptake solution. […] Km, Ki and Vmax values were then estimated by Line-weaver-Burke analysis. For competitive inhibitors, Ki values were also estimated by measuring uptake activity in the presence of logarithmically increasing concentrations of antagonist, and using the Cheng-Prusoff equation (Cheng. Y. -C. and Prusoff, W. H. 1973. Biochem. Pharmacol. 22: 3099-3108) by iterative curve fitting for a sigmoidal curve. For mixed competitive/noncompetitive inhibition, two methods were used to calculate kinetic constants. […] C. 1976. Enzymes, 3rd Ed., Academic Press, San Diego, Calif.). […] C. 1976. Enzymes, 3rd Ed., Academic Press, San Diego, Calif.).
# [2] = system: ZR-75-1 cells; assay: Effect of inhibitors on cell proliferation (11 days, DNA content); assay type: cell-based, human
# Method: Effect of Inhibitors on Cell Proliferation--For growth studies, ZR-75-1 cells were cultured in MEZR medium or in phenol red-free RPMI 1640 supplemented with 2 mM L-glutamine, 1 mM sodium pyruvate, 15 mM Hepes, antibiotics, 1 nM 17β-estradiol, 0.5 μg of bovine insulin per ml and 5% (v/v) charcoal-treated fetal bovine serum (SD medium), as indicated in the text. […] M. L. 1989. in The Physiology of Polyamines (Bachrach, U., and Helmer, Y. M. eds) Vol. I, pp. 203-229, CRC Press, Boca Raton). […] Endocrinology 126: 3223-3231). Medium was changed every other day in these experiments because of the slow reaction of the compound with an unknown component present in the IMEM and RPMI 1640 medium formulation.
# [3] = Stability in buffered aqueous solution; assay type: physicochemical; conditions: buffered at pH=7.0
# [4] = system: polyamine transporter; assay: Spermine uptake ([14C]spermine) in ZR-75-1 cells; assay type: cell-based, human
# Method: as §1
# [5] = system: ZR-75-1 cells; assay: Intracellular accumulation of DESC and MESC and polyamine contents (HPLC); assay type: cell-based, human
# Method: Polyamine Analysis--ZR-75-1 cells were plated in 100 mm culture dishes at 5×10^5 cells/dish in MEZR medium and grown for 5 days with medium changes every other day. Fresh MEZR medium containing the indicated concentration of transport antagonist was then added, plus or minus 200 μM cycloheximide (CHX), and cells were incubated for 1 or 6 hours. […] Cell pellets were resuspended in 300 μl of 10% (v/v) trichloroacetic acid or Tris-DTT buffer (50 mM Tris/HCl, 0.1 mM EDTA, 5 mM DTT, pH 7.5) and stored at -20° C. until further analysis. For chromatographic analysis, samples were first quickly thawed and incubated for 15 minutes at 37° C. Trichloroacetic acid was then added to DTT-containing samples to a final concentration of 10% (wt/v). Samples were dispersed for 2 minutes in a sonicating water bath, and pelleted in a microcentrifuge for 5 minutes. The trichloroacetic acid-insoluble pellet was solubilized in 300-500 μl of 1 N NaOH and used to determine protein content using bovine serum albumin (fraction V) as standard.
# Since DESC was eluted as a late, broad peak in the HPLC system used, DTT was added to cell extracts to reduce DESC to MESC and decrease the detection threshold. ZR-75-1 cells were incubated for 1 or 6 hours in MEZR medium in the presence of 50 or 200 μM DESC or MESC prior to determination of polyamine contents. CHX was added at 200 μM where indicated. Other details are provided under "Materials and Methods". Values are the mean±SD of triplicate determinations from 2 independent experiments.
# [6] = system: ZR-75-1 cells; assay: Time course of intracellular [3H]spermidine accumulation with transport antagonists; assay type: cell-based; conditions: Homo sapiens
# Method: The time course of intracellular accumulation of spermidine in the presence of transport antagonists was determined by incubating ZR-75-1 cells in 24-well plates with DESC (50 or 200 μM) or MESC (200 μM) in dissolved in MEZR medium containing 5 μM [^3 H]spermidine in the presence or absence of cycloheximide (CHX, 200 μM), and harvesting at the indicated times for the determination of intracellular radioactive contents, as described above for polyamine uptake assays.
# [7] = system: ZR-75-1 cells; assay: Reversal of DFMO-induced growth inhibition by exogenous spermidine; assay type: cell-based, human
# Method: Effect of Inhibitors on Cell Proliferation--For growth studies, ZR-75-1 cells were cultured in MEZR medium or in phenol red-free RPMI 1640 supplemented with 2 mM L-glutamine, 1 mM sodium pyruvate, 15 mM Hepes, antibiotics, 1 nM 17β-estradiol, 0.5 μg of bovine insulin per ml and 5% (v/v) charcoal-treated fetal bovine serum (SD medium), as indicated in the text. When polyamines or polyamine analogs were added to serum-containing media, 1 mM aminoguanidine was added to inhibit bovine serum amine oxidase (BSAO) activity (Morgan, D. M. L. 1989. in The Physiology of Polyamines (Bachrach, U., and Helmer, Y. M. eds) Vol. I, pp. 203-229, CRC Press, Boca Raton). The effect of the transport inhibitors on cell growth was measured by incubating ZR-75-1 cells for 11 days in medium supplemental with antagonist, polyamines and/or 1 mM DFMO as indicated, followed by colorimetric determination of DNA content with 3,5-diaminobenzaic acid (Simard, J., Dauvois, S., Haagensen, D. E., Levesque, C., Merand, Y. and Labrie, F. 1990. Endocrinology 126: 3223-3231). Medium was changed every other day in these experiments because of the slow reaction of the compound with an unknown component present in the IMEM and RPMI 1640 medium formulation.
# [8] = DESC stability in biological media (HPLC, cell-free); assay type: physicochemical; conditions: imem medium, 37° C., 5% CO2, cell-free, read-out: Fraction of compound decomposed
# Method: DESC stability--DESC stability was tested by incubating the compound dissolved (at 50 μM) in PBS or in IMEM medium containing 10% (v/v) fetal bovine serum plus or minus 1 mM aminoguanidine in a humid 5% CO2 atmosphere at 37° C. and in the absence of cells. At indicated times, trichloroacetic acid was added to aliquots of this solution to a final concentration 10% (w/v) and the samples directly analyzed by HPLC as above.
# [9] = secondary amino group of the spermine head; cited from earlier work
# [10] = system: polyamine transporter; assay: Spermidine uptake ([3H]spermidine) in CHO-K1 cells; assay type: cell-based, Chinese hamster; conditions: MESC thioether derivatives, FIG. 5
# [11] = 200 μM compound + 200 μM CHX, 1 h
# [12] = 200 μM compound + 200 μM CHX, 6 h
Structure (SMILES),Influence of 1 mM aminoguanidine on the growth effect of the compound [2],Stability in aqueous solution [3],"DESC intracellular content ([5]; 50 μM compound, 1 h) [nmol/mg protein]","MESC intracellular content ([5]; 50 μM compound, 1 h) [nmol/mg protein]","Spermidine intracellular content ([5]; 50 μM compound, 1 h) [nmol/mg protein]","DESC intracellular content ([5]; 50 μM compound, 6 h) [nmol/mg protein]","MESC intracellular content ([5]; 50 μM compound, 6 h) [nmol/mg protein]","Spermidine intracellular content ([5]; 50 μM compound, 6 h) [nmol/mg protein]","DESC intracellular content ([5]; 200 μM compound, 1 h) [nmol/mg protein]","MESC intracellular content ([5]; 200 μM compound, 1 h) [nmol/mg protein]","Spermidine intracellular content ([5]; 200 μM compound, 1 h) [nmol/mg protein]","DESC intracellular content ([5]; 200 μM compound, 6 h) [nmol/mg protein]","MESC intracellular content ([5]; 200 μM compound, 6 h) [nmol/mg protein]","Spermidine intracellular content ([5]; 200 μM compound, 6 h) [nmol/mg protein]",further results
"NCCCNCCCC(NCCCN)C(=O)NCCSSCCN (stereo not shown) [DEASC, N-[2,2'-Dithio(Ethyl, 1'-Aminoethyl)]spermine-5-carboxamide]",completely prevented by the amine oxidase inhibitor,stable for months,–,–,–,–,–,–,–,–,–,–,–,–,"Mode of inhibition of [3H]putrescine uptake [1]: mixed competitive/non-competitive; inhibition at 50 µM ([2]; Homo sapiens, ZR-75-1, 264 h, 50 μM, 11 days): 20%"
"NCCCNCCCC(NCCCN)C(=O)NCCSSCCNC(=O)C(CCCNCCCN)NCCCN (stereo not shown) [DESC, 2,2'-dithiobis(N-ethyl-spermine-5-carboxamide)]",–,stable for months,< 0.01,< 0.01,0.81 ± 0.14,< 0.01,< 0.01,0.73 ± 0.11,< 0.01,< 0.01,0.79 ± 0.11,0.12 ± 0.01,< 0.01,0.76 ± 0.11,"Increase in affinity for the polyamine transporter on dimerization of MESC into DESC ([4]; DESC relative to MESC): up to 20 fold; Ki against [14C]spermine transport, fold lower than that of DEASC ([4]; ZR-75-1 cells, FIG. 2): about 5 fold; Ki against [14C]spermine transport, fold lower than that of MESC ([4]; ZR-75-1 cells, FIG. 2): ~16 fold; Spermine intracellular content ([5]; 50 μM compound, 6 h): 8.60 ± 0.29 nmol/mg protein; Effect of CHX on internalization of the compound ([5]; 200 μM DESC + 200 μM CHX): did not enhance DESC internalization; DESC intracellular content [5, 11]: < 0.01 nmol/mg protein; MESC intracellular content [5, 11]: < 0.01 nmol/mg protein; Spermidine intracellular content [5, 11]: 0.76 ± 0.04 nmol/mg protein; MESC intracellular content [5, 12]: < 0.01 nmol/mg protein; Spermidine intracellular content [5, 12]: 0.70 ± 0.03 nmol/mg protein; Intracellular level relative to accumulation of substrates (spermidine, sym-norspermidine, spermine) under identical conditions ([5]; 200 μM, 6 h): about 1.5%; inhibition at 200 µM ([6]; 5 μM [3H]spermidine, 6 hours, no CHX, read-out: Decrease of net spermidine accumulation): 50%; activity at 200 µM ([6]; read-out: Cellular level of newly internalized spermidine relative to control conditions): 20%; Prevention of the reversal of DFMO-induced growth inhibition by spermidine ([7]; 50 μM, DESC:spermidine ratio up to 500): unable to prevent the reversal; degraded at 48 h, 50 µM [8]: 40%"
"NCCC[C@](N)(C(=O)O)C(F)F [DFMO, α-difluoromethylornithine]",–,–,–,–,–,–,–,–,–,–,–,–,–,–,"inhibition at 1000 µM ([7]; Homo sapiens, ZR-75-1, 264 h, 1 mM, 11-day incubation): ~50%"
"NCCCNCCCC(NCCCN)C(=O)NCCS (stereo not shown) [MESC, N-(2-mercaptoethyl)spermine-5-carboxamide]",not blocked by aminoguanidine,–,< 0.01,< 0.01,0.95 ± 0.11,< 0.01,< 0.01,0.75 ± 0.11,< 0.01,0.020,1.15 ± 0.07,< 0.01,0.13,0.81 ± 0.15,"inhibition at 200 µM ([2]; Homo sapiens, ZR-75-1, 264 h, 200 μM, 11 days, read-out: Decrease in cell growth): 35%; pKa [9]: ≈ 5.5"
[N-]=[N+]=Nc1ccc(C(=O)NCCCCNC(=O)CSCCNC(=O)C(CCCNCCCN)NCCCN)c(O)c1 (stereo not shown) [MESC-ASIB],–,–,–,–,–,–,–,–,–,–,–,–,–,–,Ki toward spermidine uptake compared with MESC [10]: did not signicantly (P>0.10) increase the Ki
